# Measured values: patent publication US10736932B2, “Small molecule Ras inhibitors” (Ohio State Innovation Foundation, priority 2014, dated 2020)
# Square brackets hold non-standard residues; d marks the D form. Peptide text beside a SMILES is read from it. * marks the point of attachment. Phe(3,4-F2) = N[C@@H](Cc1ccc(F)c(F)c1)C(=O)O; Phe(4-Cl) = N[C@@H](Cc1ccc(Cl)cc1)C(=O)O; Phe(4-F) = N[C@@H](Cc1ccc(F)cc1)C(=O)O; d2Nal = N[C@H](Cc1ccc2ccccc2c1)C(=O)O; Tle = CC(C)(C)[C@H](N)C(=O)O; X5 = O=C(c1cc(F)cc(Br)c1)*; dNle = CCCC[C@@H](N)C(=O)O; X3 = N#Cc1ccc(C(=O)*)cc1; Dap = NC[C@H](N)C(=O)O
# Molecular target: T1, K-Ras / Raf RBD interaction (Homo sapiens, UniProt P01116, G12V)
# T1 construct: The G12V mutant K-Ras (amino acids 1-185) was recombinantly fused; GST (N, cleaved yes); made in house; host or cells: Escherichia coli BL21
# Test: HTRF assay, inhibition of Ras-Raf RBD interaction;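 also: HTRF signal read after overnight incubation of the assay plate at 4 °C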
# Type: binding
# Details: for increase in Ras binding affinity upon residue substitution: relative to parent 9A5/9A6
SMILES,IC50 [nM],increase in Ras binding affinity upon residue substitution [fold]
"CC(C)C[C@H]1NC(=O)[C@H](Cc2ccc(F)cc2)NC(=O)[C@H](CCCNC(=N)N)NC(=O)[C@@H](Cc2ccc3ccccc3c2)NC(=O)[C@H](CCCNC(=N)N)NC(=O)[C@H](CCCNC(=N)N)NC(=O)[C@@H](CCCNC(=N)N)NC(=O)[C@@H](C)NC(=O)[C@H]([C@@H](C)O)NC(=O)[C@H](Cc2c[nH]c3ccccc23)NC(=O)[C@H](CCC(N)=O)NC1=O [Cyclorasin 9A10, (Trp-Thr-ala-arg-Arg-Arg-nal-Arg-Fpa-leu-Gln)] (cyclo(WT[dA][dR]RR[d2Nal]R[Phe(4-F)][dL]Q))",240 ± 130,–
"CC(C)[C@H]1NC(=O)[C@H](Cc2ccc(F)cc2)NC(=O)[C@H](CCCNC(=N)N)NC(=O)[C@@H](Cc2ccc3ccccc3c2)NC(=O)[C@H](CCCNC(=N)N)NC(=O)[C@H](CCCNC(=N)N)NC(=O)[C@@H](CCCNC(=N)N)NC(=O)[C@@H](C)NC(=O)[C@H]([C@@H](C)O)NC(=O)[C@H](Cc2c[nH]c3ccccc23)NC(=O)[C@H](CCC(N)=O)NC1=O [Cyclorasin 9A11, (Trp-Thr-ala-arg-Arg-Arg-nal-Arg-Fpa-val-Gln)] (cyclo(WT[dA][dR]RR[d2Nal]R[Phe(4-F)][dV]Q))",310 ± 80,–
"CCCC[C@H]1NC(=O)[C@H](Cc2ccc(F)cc2)NC(=O)[C@H](CCCNC(=N)N)NC(=O)[C@@H](Cc2ccc3ccccc3c2)NC(=O)[C@H](CCCNC(=N)N)NC(=O)[C@H](CCCNC(=N)N)NC(=O)[C@@H](CCCNC(=N)N)NC(=O)[C@@H](C(C)C)NC(=O)[C@H]([C@@H](C)O)NC(=O)[C@H](Cc2c[nH]c3ccccc23)NC(=O)[C@H](CCC(N)=O)NC1=O [Cyclorasin 9A14, (Trp-Thr-val-arg-Arg-Arg-nal-Arg-Fpa-nle-Gln)] (cyclo(WT[dV][dR]RR[d2Nal]R[Phe(4-F)][dNle]Q))",130 ± 70,~2
"CCCC[C@H]1NC(=O)[C@H](Cc2ccc(F)cc2)NC(=O)[C@H](CCCNC(=N)N)NC(=O)[C@@H](Cc2ccc3ccccc3c2)NC(=O)[C@H](CCCNC(=N)N)NC(=O)[C@H](CCCNC(=N)N)NC(=O)[C@@H](CCCNC(=N)N)NC(=O)[C@@H](CC(C)C)NC(=O)[C@H]([C@@H](C)O)NC(=O)[C@H](Cc2c[nH]c3ccccc23)NC(=O)[C@H](CCC(N)=O)NC1=O [Cyclorasin 9A15, (Trp-Thr-leu-arg-Arg-Arg-nal-Arg-Fpa-nle-Gln)] (cyclo(WT[dL][dR]RR[d2Nal]R[Phe(4-F)][dNle]Q))",110 ± 40,–
"CCCC[C@H]1NC(=O)[C@H](Cc2ccc(F)cc2)NC(=O)[C@H](CCCNC(=N)N)NC(=O)[C@@H](Cc2ccc3ccccc3c2)NC(=O)[C@H](CCCNC(=N)N)NC(=O)[C@H](CCCNC(=N)N)NC(=O)[C@@H](CCCNC(=N)N)NC(=O)[C@@H](C)NC(=O)[C@H](C(C)(C)C)NC(=O)[C@H](Cc2c[nH]c3ccccc23)NC(=O)[C@H](CCC(N)=O)NC1=O [Cyclorasin 9A16, (Trp-Tle-ala-arg-Arg-Arg-nal-Arg-Fpa-nle-Gln)] (cyclo(W[Tle][dA][dR]RR[d2Nal]R[Phe(4-F)][dNle]Q))",110 ± 10,~2
"CCCC[C@H]1NC(=O)[C@H](Cc2ccc(F)cc2)NC(=O)[C@H](CCCNC(=N)N)NC(=O)[C@@H](Cc2ccc3ccccc3c2)NC(=O)[C@H](CCCNC(=N)N)NC(=O)[C@H](CCCNC(=N)N)NC(=O)[C@@H](CCCNC(=N)N)NC(=O)[C@@H](C)NC(=O)[C@H](CO)NC(=O)[C@H](Cc2c[nH]c3ccccc23)NC(=O)[C@H](CCC(N)=O)NC1=O [Cyclorasin 9A17, (Trp-Ser-ala-arg-Arg-Arg-nal-Arg-Fpa-nle-Gln)] (cyclo(WS[dA][dR]RR[d2Nal]R[Phe(4-F)][dNle]Q))",720 ± 310,–
"CCCC[C@H]1NC(=O)[C@H](Cc2ccc(F)cc2)NC(=O)[C@H](CCCNC(=N)N)NC(=O)[C@@H](Cc2ccc3ccccc3c2)NC(=O)[C@H](CCCNC(=N)N)NC(=O)[C@H](CCCNC(=N)N)NC(=O)[C@@H](CCCNC(=N)N)NC(=O)[C@@H](C)NC(=O)[C@H](C(C)C)NC(=O)[C@H](Cc2c[nH]c3ccccc23)NC(=O)[C@H](CCC(N)=O)NC1=O [Cyclorasin 9A18, (Trp-Val-ala-arg-Arg-Arg-nal-Arg-Fpa-nle-Gln)] (cyclo(WV[dA][dR]RR[d2Nal]R[Phe(4-F)][dNle]Q))",230 ± 110,–
"CCCC[C@H]1NC(=O)[C@H](Cc2ccc(F)cc2)NC(=O)[C@H](CCCNC(=N)N)NC(=O)[C@@H](Cc2ccc3ccccc3c2)NC(=O)[C@H](CCCNC(=N)N)NC(=O)[C@H](CCCNC(=N)N)NC(=O)[C@H](CCCNC(=N)N)NC(=O)[C@@H](CC(C)C)NC(=O)[C@H](C(C)(C)C)NC(=O)[C@H](Cc2c[nH]c3ccccc23)NC(=O)[C@H](CCC(N)=O)NC1=O [Cyclorasin 9A41, (Trp-Tle-leu-Arg-Arg-Arg-nal-Arg-Fpa-nle-Gln)] (cyclo(W[Tle][dL]RRR[d2Nal]R[Phe(4-F)][dNle]Q))",2000 ± 900,–
"CCCC[C@H]1NC(=O)[C@H](Cc2ccc(Cl)cc2)NC(=O)[C@H](CCCNC(=N)N)NC(=O)[C@@H](Cc2ccc3ccccc3c2)NC(=O)[C@H](CCCNC(=N)N)NC(=O)[C@H](CCCNC(=N)N)NC(=O)[C@H](CCCNC(=N)N)NC(=O)[C@@H](C)NC(=O)[C@H]([C@@H](C)O)NC(=O)[C@H](Cc2c[nH]c3ccccc23)NC(=O)[C@H](CCC(N)=O)NC1=O [Cyclorasin 9A42, (Trp-Thr-ala-Arg-Arg-Arg-nal-Arg-Phe(4-chloro)-nle-Gln)] (cyclo(WT[dA]RRR[d2Nal]R[Phe(4-Cl)][dNle]Q))",130 ± 20,–
"CCCC[C@H]1NC(=O)[C@H](Cc2ccc(F)c(F)c2)NC(=O)[C@H](CCCNC(=N)N)NC(=O)[C@@H](Cc2ccc3ccccc3c2)NC(=O)[C@H](CCCNC(=N)N)NC(=O)[C@H](CCCNC(=N)N)NC(=O)[C@H](CCCNC(=N)N)NC(=O)[C@@H](C)NC(=O)[C@H]([C@@H](C)O)NC(=O)[C@H](Cc2c[nH]c3ccccc23)NC(=O)[C@H](CCC(N)=O)NC1=O [Cyclorasin 9A43, (Trp-Thr-ala-Arg-Arg-Arg-nal-Arg-Phe(3,4-difluoro)-nle-Gln)] (cyclo(WT[dA]RRR[d2Nal]R[Phe(3,4-F2)][dNle]Q))",64,2
"CCCC[C@H]1NC(=O)[C@H](CNC(=O)c2cc(F)cc(Br)c2)NC(=O)[C@H](CCCNC(=N)N)NC(=O)[C@@H](Cc2ccc3ccccc3c2)NC(=O)[C@H](CCCNC(=N)N)NC(=O)[C@H](CCCNC(=N)N)NC(=O)[C@H](CCCNC(=N)N)NC(=O)[C@@H](C)NC(=O)[C@H]([C@@H](C)O)NC(=O)[C@H](Cc2c[nH]c3ccccc23)NC(=O)[C@H](CCC(N)=O)NC1=O [Cyclorasin 9A44a, (Trp-Thr-ala-Arg-Arg-Arg-nal-Arg-Dap(3-bromo-5-fluorobenzoyl)-nle-Gln)] (cyclo(WT[dA]RRR[d2Nal]R[Dap](X5)[dNle]Q))",83 ± 8,–
"CCCC[C@H]1NC(=O)[C@H](CNC(=O)c2ccc(C#N)cc2)NC(=O)[C@H](CCCNC(=N)N)NC(=O)[C@@H](Cc2ccc3ccccc3c2)NC(=O)[C@H](CCCNC(=N)N)NC(=O)[C@H](CCCNC(=N)N)NC(=O)[C@H](CCCNC(=N)N)NC(=O)[C@@H](C)NC(=O)[C@H](C(C)(C)C)NC(=O)[C@H](Cc2c[nH]c3ccccc23)NC(=O)[C@H](CCC(N)=O)NC1=O [Cyclorasin 9A44c, (Trp-Tle-ala-Arg-Arg-Arg-nal-Arg-Dap(4-cyanobenzoyl)-nle-Gln)] (cyclo(W[Tle][dA]RRR[d2Nal]R[Dap](X3)[dNle]Q))",150 ± 50,–
